Experimental data as given in ChEMBL document CHEMBL3769318, “The Rational Design of Selective Benzoxazepin Inhibitors of the α-Isoform of Phosphoinositide 3-Kinase Culminating in the Identification of (S)-2-((2-(1-Isopropyl-1H-1,2,4-triazol-5-yl)-5,6-dihydrobenzo[f]imidazo[1,2-d][1,4]oxazepin-9-yl)oxy)propanamide (GDC-0326)” (J Med Chem, 2016).

Key:
[1] = biological target: Phosphatidylinositol 4,5-bisphosphate 3-kinase catalytic subunit alpha isoform (Homo sapiens, UniProt P42336); test: Inhibition of recombinant PI3K alpha (unknown origin) using PIP2 as substrate by fluorescence polarization assay; settings: read-out: Ki(app)
Sequence of Phosphatidylinositol 4,5-bisphosphate 3-kinase catalytic subunit alpha isoform (P42336 whole entry, canonical isoform): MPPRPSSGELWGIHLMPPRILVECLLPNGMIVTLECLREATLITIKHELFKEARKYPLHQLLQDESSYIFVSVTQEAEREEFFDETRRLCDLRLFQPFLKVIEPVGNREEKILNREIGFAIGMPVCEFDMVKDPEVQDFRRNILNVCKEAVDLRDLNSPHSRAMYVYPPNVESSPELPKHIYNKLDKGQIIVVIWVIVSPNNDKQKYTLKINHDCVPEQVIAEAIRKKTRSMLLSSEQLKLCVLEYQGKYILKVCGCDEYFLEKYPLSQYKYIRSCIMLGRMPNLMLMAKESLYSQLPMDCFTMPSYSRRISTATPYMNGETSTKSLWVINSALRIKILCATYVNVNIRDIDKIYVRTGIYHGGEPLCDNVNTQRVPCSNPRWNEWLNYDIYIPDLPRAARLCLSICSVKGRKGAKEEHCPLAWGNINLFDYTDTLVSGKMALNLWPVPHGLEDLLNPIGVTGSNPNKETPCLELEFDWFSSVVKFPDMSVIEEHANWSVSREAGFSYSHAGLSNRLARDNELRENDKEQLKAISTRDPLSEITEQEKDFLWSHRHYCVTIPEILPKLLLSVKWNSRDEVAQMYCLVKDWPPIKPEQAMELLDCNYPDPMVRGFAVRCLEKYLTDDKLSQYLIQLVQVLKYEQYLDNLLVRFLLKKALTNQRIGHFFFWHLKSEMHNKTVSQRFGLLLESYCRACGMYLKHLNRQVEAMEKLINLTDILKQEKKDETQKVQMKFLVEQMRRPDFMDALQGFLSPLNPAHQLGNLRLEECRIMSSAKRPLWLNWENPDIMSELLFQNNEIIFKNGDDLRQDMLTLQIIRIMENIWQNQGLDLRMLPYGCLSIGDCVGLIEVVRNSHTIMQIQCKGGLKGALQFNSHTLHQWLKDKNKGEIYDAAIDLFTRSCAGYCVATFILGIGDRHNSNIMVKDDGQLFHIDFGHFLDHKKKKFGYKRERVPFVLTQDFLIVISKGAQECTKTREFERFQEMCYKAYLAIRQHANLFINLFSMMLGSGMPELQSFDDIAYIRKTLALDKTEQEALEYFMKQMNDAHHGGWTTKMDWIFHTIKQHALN

[2] = Antiproliferative activity against human MCF7-neo/Her2 cells after 3 days by luminescence plate reader method; assay type: functional, cell-based; settings: 72 h
[3] = Antiproliferative activity against human PC3 cells after 4 days by luminescence plate reader method; assay type: functional, cell-based; settings: PC-3, 96 h
[4] = Clearance in Sprague-Dawley rat at 1 mg/kg, iv; assay type: ADME, organism-based; settings: in vivo
[5] = tested on: Hepatocyte; test: Drug metabolism in rat hepatocytes; assay type: ADME, cell-based
[6] = tested on: Hepatocyte; test: Drug metabolism in human hepatocytes; assay type: ADME, cell-based

SMILES | Ki [1] | clearance [4] | Drug metabolism [5] | Drug metabolism [6] | EC50 [2] | EC50 [3]
CC(C)n1ncnc1-c1cn2c(n1)-c1ccc(O[C@H](C)C(N)=O)cc1OCC2 |  |  |  |  | 1000 nM | 4600 nM
COC(=O)Nc1ccc2c(c1)OCCc1cc(-c3nncn3-c3ccccc3Cl)sc1-2 | 1 nM |  |  |  |  | 
CC(C)n1ncnc1-c1cn2c(n1)-c1cnc(OCC(N)=O)cc1OCC2 | 0.9 nM |  |  |  |  | 
CC[C@H](Oc1ccc2c(c1)OCCn1cc(-c3ncnn3C(C)C)nc1-2)C(N)=O | 0.5 nM |  |  |  | 200 nM | 2900 nM

Continued by falling Ki [1], values first:

Ki [1] | clearance [4] | Drug metabolism [5] | Drug metabolism [6] | SMILES | EC50 [2] | EC50 [3]
3.2 nM |  |  |  | CC(C)n1ncnc1-c1cn2c(n1)-c1cnc(N3CCC[C@@H]3C(N)=O)cc1OCC2 |  | 
3.1 nM |  |  |  | CC(C)n1ncnc1-c1cn2c(n1)-c1cnc(OC(C)(C)C(N)=O)cc1OCC2 |  | 
1.3 nM | 125 mL/min/kg |  |  | CC(C)n1ncnc1-c1cn2c(n1)-c1cnc(N3CCCC3)cc1OCC2 |  | 
0.3 nM |  |  |  | CC(C)n1ncnc1-c1cn2c(n1)-c1ccc(OCC(N)=O)cc1OCC2 | 200 nM | 200 nM
0.1 nM |  |  |  | CC(C)n1ncnc1-c1cn2c(n1)-c1ccc(N3CC[C@H]3C(N)=O)cc1OCC2 | 50 nM | 230 nM
0.1 nM | 83 mL/min/kg | metabolite_notdetected | metabolite_notdetected | CC(C)n1ncnc1-c1cn2c(n1)-c1cnc(N3CCC[C@H]3C(N)=O)cc1OCC2 |  | 
